From PMC10899662, “TopBP1 utilises a bipartite GINS binding mode to support genome replication” (Nature Communications, 2024)

B1: TopBP1-BRCT0-5: 6Myc-TEV2-tagged TopBP1-BRCT0-5 expressed in 293T cells (protein)
chain: MSRNDKEPFFVKFLKSSDNSKCFFKALESIKEFQSEEYLQIITEEEALKIKENDRSLYICDPFSGVVFDHLKKLGCRIVGPQVVIFCMHHQRCVPRAEHPVYNMVMSDVTISCTSLEKEKREEVHKYVQMMGGRVYRDLNVSVTHLIAGEVGSKKYLVAANLKKPILLPSWIKTLWEKSQEKKITRYTDINMEDFKCPIFLGCIICVTGLCGLDRKEVQQLTVKHGGQYMGQLKMNECTHLIVQEPKGQKYECAKRWNVHCVTTQWFFDSIEKGFCQDESIYKTEPRPEAKTMPNSSTPTSQINTIDSRTLSDVSNISNINASCVSESICNSLNSKLEPTLENLENLDVSAFQAPEDLLDGCRIYLCGFSGRKLDKLRRLINSGGGVRFNQLNEDVTHVIVGDYDDELKQFWNKSAHRPHVVGAKWLLECFSKGYMLSEEPYIHANYQPVEIPVSHKPESKAALLKKKNSSFSKKDFAPSEKHEQADEDLLSQYENGSSTVVEAKTSEARPFNDSTHAEPLNDSTHISLQEENQSSVSHCVPDVSTITEEGLFSQKSFLVLGFSNENESNIANIIKENAGKIMSLLSRTVADYAVVPLLGCEVEATVGEVVTNTWLVTCIDYQTLFDPKSNPLFTPVPVMTGMTPLEDCVISFSQCAGAEKESLTFLANLLGASVQEYFVRKSNAKKGMFASTHLILKERGGSKYEAAKKWNLPAVTIAWLLETARTGKRADESHFLIENSTKEERSLETEITNGINLNSDTAEHP
modifications: left off: Strep, C-terminal, kept
notes: 6Myc-TEV2-tagged TopBP1-BRCT0-5 expressed in 293T cells

Assays:
[1] = test system: TopBP1-proximal proteins (Psf3, Psf2); assay: APEX2 proximity biotinylation, streptavidin pulldown and mass spectrometry; assay type: cell-based, human; conditions: three proximity biotinylation experiments; + H2O2 vs - H2O2; four biological replicates
Protocol: Proximity labelling was performed in isogenic stable 293 Flip-In (Thermo Fisher; R75007) cells stably expressing TopBP1 N-terminal tagged with APEX2 or in 293T cells transiently expressing either N-terminal or C-terminally APEX2-tagged TopBP1. 24 h before transfection, 0.8 × 10^6 cells were seeded onto a 6-cm plate. For each condition, four dishes were separately transfected (biological replicates). One day after transfection, cells were incubated for 30 min with 500 µM biotin phenol at 37 °C, before incubation for 1 min at RT with or without (controls) 1 mM H2O2. The medium was discarded, and cells were washed three times with quenching buffer (10 mM sodium azide, 10 mM sodium ascorbate and 5 mM Trolox in Dulbecco’s PBS (Life Technologies 14190169). Cells were rinsed off the dishes with DPBS, transferred into reaction tubes before washing again with DPBS. Cells were lysed at 95 °C for 10 min in TSD buffer (50 mM Tris pH 7.5, 5 mM DTT and 1% SDS). Samples were diluted ten times with TNN buffer (20 mM Tris pH 7.9, 200 mM NaCl and 0.5% NP-40 alternative) and benzonase (75 U per sample) (Sigma E1014). Samples were incubated for 15 min at 4 °C and centrifuged at 21,000 × g for 2 min at 4 °C. Supernatants were incubated over night with 15 µl streptavidin sepharose beads (Sigma GE17-5113-01) at 4 °C. […]

Sld5 = assay: Myc immunoprecipitation from transfected 293T cells, Sld5 co-IP; assay type: binding; conditions: transiently transfected 293T cell lysates, anti-Myc
Protocol: Transient transfections of 6xMyc-Tev2-TopBP1 into 293T cells (ATCC CRL-11268) were carried out using PEI (polyethyleneimine) according to a protocol kindly shared by David Cortez’ lab. 4 µg plasmid DNA in 100 µl DMEM (Thermofisher, 41965039) without penicillin-streptomycin were combined with 2.4 µl Polyethylenimin (Sigma, 408727; 10 mg/ml) and incubated for 20 min before addition to 4 × 10^6 cells on a 10-cm dish. Transfected cells were used 72 h post transfection. 72 h post transfection, 293T cells were lysed by douncing in ten times cell pellet volume of lysis buffer (20 mM HEPES pH 8.0, 150 mM NaCl, 0.1% (v/v) Tween-20, 0.5 mM TCEP, 2% (v/v) glycerol, protease inhibitor cocktail (Roche, Complete protease inhibitor cocktail, 05056489001)), and centrifuged at 20,000 × g for 15 min at 4 °C. The soluble supernatant was added to magnetic anti-Myc beads (5 µl slurry per sample; Thermofischer, 88842) and incubated for 2 h at 4 °C rotating. Cells equivalent to 50% of a 15 cm dish were used per sample. Beads were washed three times in lysis buffer with 5 min incubation each, and finally boiled in 50 µl Laemmli loading buffer (6.5% glycerol, 715 mM β-mercaptoethanol, 3% SDS, 62.5 mM Tris-HCl pH 7.9, 0.005% bromphenol blue).
Non-APEX2-bio=nylated samples (-H2O2) were used as controls. […] Immunoprecipitated TopBP1 was detected using Ponceau (Ponc.) staining. […]

Row | Molecule | enrichment of Psf3 upon streptavidin pulldown [1] | Sld5 co-immunoprecipitation (Sld5)
1 | APEX2-tagged TopBP1: N- or C-terminally APEX2-tagged TopBP1 | specific enrichment of Psf3 | 
2 | B1 |  | weak but specific signal
